{
  "source": "patent US20250268859A1",
  "about": "“OXAFURAMINE, (1R)-N-ETHYL-1-[(2R)-OXOLAN-2-YL]-2-[…], HYDROCHLORIDE AND DERIVATIVES THEREOF FOR TREATING ALZHEIMER'S DISEASE (AD), […] […], […] WITH LEWY BODIES (DLB), MIXED […], FRON[…] DEGENERATION (FTLD), AND PARKINSON'S DISEASE (PD)” (NLS Pharmaceutics AG, priority 2021, published 2025)",
  "key": {"[1]": {"test_system": "memory (recognition of the familiar object) in mice", "assay": "Novel Object Recognition (NOR) test in mice", "assay_type": "in vivo, C57BL/6J, male", "conditions": "choice trial, mean, N = 16", "description": "The test was carried out in circular boxes (30 cm diameter, 40 cm high). The objects to be discriminated (L≈1≈h≈3-4 cm) differed in both color and shape and were referred as yellow duck and blue lego. They were fixed with a magnet to the floor of the boxes at 5 cm of the wall, 20 cm distant. Apparently, they have no natural significance for mice and they have never been associated with a reinforcement. In order to rule out the possibility of scent traces left on the objects and therefore the dependency of the recognition capacity of mice on the olfactory cue, the objects and the ground of the box were washed with an odorless disinfectant (Sanicid® diluted in water) and dried between each trial. A camcorder was fixed to the ceiling above the box to record the animals' activity. The experiment was analyzed blindly at a later time.\nOn the week before the test, animals were handled by the experimenter in charge of the experiment in order to be not stressed at the time of testing. For this purpose, the experimenter placed a small amount of litter, and then the mouse on its hand.\nThe NOR test was completed over five days (see FIG. 1): • Day 1: Habituation trial. Animals were individually placed for a 15-min free exploration session in empty open boxes. • Day 2. Treatment administration and sample trial. […] They were individually placed 30 min after in the apparatus for a 6-min session with two identical objects (Duck, 50% of animals or Lego, 50% of animals). • Day 3. Choice trial. The mice were individually placed for a 6-min session in the apparatus with two objects (Duck and Lego), one of the objects presented in sample trials (termed as familiar objects) and a novel object (Lego, 50% of animals or Duck, 50% of animals).\nThe sample and choice trials were recorded with the camera located above the apparatus. The time spent by mice in exploring the objects was measured during the sample trial and the choice trial. Exploration of an object was defined as follows: directing the nose to the object at a distance≤2 cm and/or touching it with the nose or forelimbs; turning around or biting the object, or sitting on the object were not considered as exploratory behavior.\n• L=exploration time of the left object in the sample trial. • R=exploration time of the right object in the sample trial. • N=exploration time of the new object in the choice trial. • F=exploration time of the familiar object in the choice trial.\n• Exploration indices: • ST=L+R=exploration time (left object+right object) in the sample trial. • CT=N+F=exploration time (new object+familiar object) in the choice trial. • Two memory indices: • N-F=difference of exploration time between the new object and the familiar object in the choice trial.\n(§1) Statistical analyses: • Read-outs: DI, N-F, ST, CT, N, F • Unpaired Student's t test: Donep 2 group vs. Control group. • One-way ANOVA, Dunnett test: • NLS-12 groups vs. Control group. • NLS-12 groups vs. Donep 2 group. • Read-outs: DI and N-F, for all groups, paired Student's t test, difference vs. 0. • Body weight: one-way ANOVA."}, "M1 (h)": {"target": "T1, M1 (h) (Homo sapiens, UniProt P11229)", "T1 construct": "Eurofins (contract panel)", "T1 sequence (P11229 1-460)": "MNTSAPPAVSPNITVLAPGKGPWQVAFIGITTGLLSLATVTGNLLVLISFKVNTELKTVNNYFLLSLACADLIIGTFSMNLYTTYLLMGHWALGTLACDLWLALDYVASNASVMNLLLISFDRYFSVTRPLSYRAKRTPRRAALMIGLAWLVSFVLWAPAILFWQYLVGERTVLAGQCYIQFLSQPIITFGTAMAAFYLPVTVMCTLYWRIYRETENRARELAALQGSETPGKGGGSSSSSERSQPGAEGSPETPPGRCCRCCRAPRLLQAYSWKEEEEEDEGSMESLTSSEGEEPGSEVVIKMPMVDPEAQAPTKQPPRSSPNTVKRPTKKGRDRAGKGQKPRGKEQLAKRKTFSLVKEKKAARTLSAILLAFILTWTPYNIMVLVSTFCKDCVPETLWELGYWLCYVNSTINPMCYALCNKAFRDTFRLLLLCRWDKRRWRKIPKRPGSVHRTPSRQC", "assay": "Radioligand binding panel, M1 (h) (antagonist radioligand)", "conditions": "% inhibition of control specific binding", "description": "(§2) Oxafuramine is tested at 10^−5 M, calculated as a % inhibition of control specific binding of a radioactively labeled ligand specific for each target.\n(§3) This binding profile panel was broadly defined with roughly an equal number of selective, central and peripheral therapeutically relevant targets, including native animal tissues, radioligands and specific enzymes involved in cell cycle regulation in accordance with Eurofins Standard Operating Procedure (www.eurofins.fr).\n(§4) For radioligand binding experiments, the half maximal inhibitory concentration (IC50) and the half maximal effective concentration (EC50) values were determined (via computer software) by nonlinear regression analysis of the competition curves using Hill equation curve fitting. The inhibition constants (Ki) were calculated using the Cheng-Prusoff equation (Ki=IC50/(1+(L/KD)), where L is the concentration of radioligand in the assay, and KD is the affinity of the radioligand for the receptor.\n(§5) The results are expressed as a % control specific binding ([measured specific binding/control specific binding]×100) and as a % inhibition of control specific binding (100−[(measured specific binding/control specific binding)×100]) obtained in the presence of the test compounds. […]"}, "[2]": {"assay": "Body weight of the mice in the NOR study", "assay_type": "in vivo, C57BL/6J, male", "conditions": "mean, N = 16", "from_the_text": "as §1"}, "NET (h)": {"target": "T2, NET (h) (Homo sapiens, UniProt P23975)", "T2 construct": "Eurofins (contract panel)", "T2 sequence (P23975 whole entry)": "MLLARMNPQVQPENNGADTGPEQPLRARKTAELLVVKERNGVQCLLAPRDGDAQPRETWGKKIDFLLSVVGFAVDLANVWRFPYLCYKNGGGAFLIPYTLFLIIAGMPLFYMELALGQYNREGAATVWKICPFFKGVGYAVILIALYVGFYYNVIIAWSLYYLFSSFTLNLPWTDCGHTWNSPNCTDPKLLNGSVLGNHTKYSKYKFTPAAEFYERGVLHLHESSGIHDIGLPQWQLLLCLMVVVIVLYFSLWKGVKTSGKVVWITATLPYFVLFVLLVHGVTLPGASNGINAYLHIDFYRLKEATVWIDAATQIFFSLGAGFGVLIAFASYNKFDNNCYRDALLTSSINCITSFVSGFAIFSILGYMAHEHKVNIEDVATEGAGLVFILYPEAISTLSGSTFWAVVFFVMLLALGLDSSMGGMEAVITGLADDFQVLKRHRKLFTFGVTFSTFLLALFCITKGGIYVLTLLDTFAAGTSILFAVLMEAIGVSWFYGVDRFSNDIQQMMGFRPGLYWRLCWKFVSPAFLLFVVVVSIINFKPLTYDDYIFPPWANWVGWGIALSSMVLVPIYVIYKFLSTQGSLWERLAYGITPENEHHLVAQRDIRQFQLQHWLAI", "assay": "Radioligand binding panel, NET (h) (antagonist radioligand)", "conditions": "% inhibition of control specific binding", "description": "as §2, §3, §4, §5"}, "DAT (h)": {"target": "T3, DAT (h) (Homo sapiens, UniProt Q01959)", "T3 construct": "Eurofins (contract panel)", "T3 sequence (Q01959 whole entry)": "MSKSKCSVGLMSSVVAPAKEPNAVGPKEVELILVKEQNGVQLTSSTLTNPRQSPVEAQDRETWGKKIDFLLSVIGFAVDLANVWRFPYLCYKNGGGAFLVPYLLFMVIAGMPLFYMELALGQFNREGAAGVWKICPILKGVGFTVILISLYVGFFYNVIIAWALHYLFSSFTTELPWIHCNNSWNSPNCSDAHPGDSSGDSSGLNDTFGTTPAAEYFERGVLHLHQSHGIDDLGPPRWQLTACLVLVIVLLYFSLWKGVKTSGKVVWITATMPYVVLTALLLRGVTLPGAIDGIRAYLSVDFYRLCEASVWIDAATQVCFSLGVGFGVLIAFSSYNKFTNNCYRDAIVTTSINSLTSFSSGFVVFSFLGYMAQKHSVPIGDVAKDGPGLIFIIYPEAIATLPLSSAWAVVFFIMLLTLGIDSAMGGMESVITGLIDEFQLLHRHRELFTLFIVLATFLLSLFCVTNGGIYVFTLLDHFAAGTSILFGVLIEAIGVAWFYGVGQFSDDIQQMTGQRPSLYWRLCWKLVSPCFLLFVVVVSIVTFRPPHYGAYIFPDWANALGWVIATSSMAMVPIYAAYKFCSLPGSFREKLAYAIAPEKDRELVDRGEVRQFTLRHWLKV", "assay": "Radioligand binding panel, DAT (h) (antagonist radioligand)", "conditions": "% inhibition of control specific binding", "description": "as §2, §3, §4, §5"}},
  "data": [
    {"smiles": "CCN[C@H](Cc1ccccc1)[C@H]1CCCO1", "note": "[Oxafuramine, (1R)—N-ethyl-1-[(2R)-oxolan-2-yl]-2-phenylethanamine]", "values": [
      {"measurement": "F Exploration time of familiar object", "setting": "[1]; NLS-12 1 mg/kg i.p.", "result": 12.0, "unit": "s"},
      {"measurement": "N Exploration time of novel object", "setting": "[1]; NLS-12 1 mg/kg i.p.", "result": 12.6, "unit": "s"},
      {"measurement": "F Exploration time of familiar object", "setting": "[1]; NLS-12 4 mg/kg i.p.", "result": 11.0, "unit": "s"},
      {"measurement": "N Exploration time of novel object", "setting": "[1]; NLS-12 4 mg/kg i.p.", "result": 14.7, "unit": "s"},
      {"measurement": "F Exploration time of familiar object", "setting": "[1]; NLS-12 8 mg/kg i.p.", "result": 9.9, "unit": "s"},
      {"measurement": "N Exploration time of novel object", "setting": "[1]; NLS-12 8 mg/kg i.p.", "result": 15.9, "unit": "s"},
      {"measurement": "inhibition at 10 µM", "setting": "M1 (h); 10^−5 M", "result": "~30", "unit": "%"},
      {"measurement": "% Inhibition at 10^−5M, M1 (h) (antagonist radioligand)", "setting": "M1 (h)", "result": 29.7, "unit": "%"},
      {"measurement": "BW Body weight", "setting": "[2]; NLS-12 1 mg/kg i.p. group", "result": 22.8, "unit": "g"},
      {"measurement": "BW Body weight", "setting": "[2]; NLS-12 4 mg/kg i.p. group", "result": 23.5, "unit": "g"},
      {"measurement": "BW Body weight", "setting": "[2]; NLS-12 8 mg/kg i.p. group", "result": 22.9, "unit": "g"},
      {"measurement": "inhibition at 10 µM", "setting": "NET (h); 10^−5 M", "result": 53.3, "unit": "%"},
      {"measurement": "% Inhibition at 10^−5M, NET (h) (antagonist radioligand)", "setting": "NET (h)", "result": "appreciable potencies"},
      {"measurement": "inhibition at 10 µM", "setting": "DAT (h); 10^−5 M", "result": 94.1, "unit": "%"},
      {"measurement": "% Inhibition at 10^−5M, DAT (h) (antagonist radioligand)", "setting": "DAT (h)", "result": "appreciable potencies"}
    ]}
  ]
}
